Laboratory results as given in patent publication US10538738B2, “Megakaryocytic particles and microparticles for cell therapy and fate modification of stem and progenitor cells” (priority 2014, dated 2020).
Residues, ends and D or L forms follow the SMILES beside them. *: point of attachment. Cbz = O=C(OCc1ccccc1)*; CH2F = FC*

Experiments:
[1] = test system: Mks; assay: Shear-enhanced MkMP generation from Mks treated with caspase inhibitors; format: cell-based, human; details: d10 and d12 Mks, 10 μM inhibitor, shear flow 2.5 dyn/cm^2 for 0.5 hour
Procedure: Rectangular flow slides (μ-Slide 1^0.6 Luer, ibidi USA) were coated with 50 μg/mL vWF, and ca. 300,000 cultured Mks were seeded into each slide. Mks on slides were cultured overnight (21 hours) before being exposed to shear flow. Medium (IMDM supplemented with 10% BIT9500, 50 ng/mL TPO, 50 ng/mL rhSCF, 0.5 μg/mL hLDL and 6.25 mM nicotinamide) was perfused over Mks on slides by two syringe pumps (Dual NE-4000 pump; New Era Pump Systems) to achieve the desirable shear-stress level. For BrdU incorporation assays, the medium was supplemented with 10 μM BrdU (BD). During shear flow, some Mks were detached from the slide surface and released into the circulating medium. These are considered as non-adherent Mks. Adherent Mks were harvested for analysis using non-enzymatic cell dissociation buffer (Sigma-Aldrich). In some experiments, adherent Mks were fixed with 2% paraformaldehyde directly on slides and processed for immunofluorescence analysis. In some experiments, Mks were treated with caspase inhibitors, 10 μM z-VAD.fmk (Bachem) or 10 μM z-DEVD.fmk (Bachem) starting on d9. […]
For both static cultures and cultures exposed to shear flow, Mk cells were removed from the culture medium by centrifugation (150× g for 10 minutes). […] Concentrations of MkMPs (and of PMPs and Mks) were measured by flow cytometry using 1.34 μm microbeads (Sphero Tech) as standard. […]

[2] = test system: Mks; assay: Shear-flow PPT and PLP generation from Mks treated with caspase inhibitors; format: cell-based, human; details: 10 μM inhibitor, shear flow 2.5 dyn/cm^2 for 0.5 hour
Procedure: Rectangular flow slides (μ-Slide 1^0.6 Luer, ibidi USA) were coated with 50 μg/mL vWF, and ca. 300,000 cultured Mks were seeded into each slide. Mks on slides were cultured overnight (21 hours) before being exposed to shear flow. Medium (IMDM supplemented with 10% BIT9500, 50 ng/mL TPO, 50 ng/mL rhSCF, 0.5 μg/mL hLDL and 6.25 mM nicotinamide) was perfused over Mks on slides by two syringe pumps (Dual NE-4000 pump; New Era Pump Systems) to achieve the desirable shear-stress level. For BrdU incorporation assays, the medium was supplemented with 10 μM BrdU (BD). During shear flow, some Mks were detached from the slide surface and released into the circulating medium. These are considered as non-adherent Mks. Adherent Mks were harvested for analysis using non-enzymatic cell dissociation buffer (Sigma-Aldrich). In some experiments, adherent Mks were fixed with 2% paraformaldehyde directly on slides and processed for immunofluorescence analysis. In some experiments, Mks were treated with caspase inhibitors, 10 μM z-VAD.fmk (Bachem) or 10 μM z-DEVD.fmk (Bachem) starting on d9. Inhibitor-treated Mks were seeded into flow slides at d9 or d11, were exposed to shear flow (2.5 dyn/cm^2 for 0.5 hour) in medium supplemented with the same inhibitor, and were harvested for PPT, PLP and CD41^+ microparticle counting.
Large cells were excluded from PLP preparations by centrifugation at 150× g for 10 minutes. PLPs were then pelleted by centrifugation at 1000× g for 10 minutes from the PLP-enriched supernatant. After one wash, PLPs were resuspended in Tyrode's buffer and used in platelet-stimulation assays. The number of PLPs and PPTs per slide was measured using a Multisizer™ 3 Coulter Counter (Beckman Coulter).
It has been shown that activation of caspase-3 and 9 is required for PPT formation. Here we wanted to investigate if shear stress affects caspase-3 activation in Mks. We chose caspase-3 as a marker of late apoptosis to complement our Annexin V studies above, which pertain to early apoptotic events. First, we confirmed that caspase-3 in indeed activated during in vitro Mk maturation with our culture protocol. […] We also observed a correlation between the activation level of caspase-3 in Mks (represented as the ratio of MFI of active caspase-3 over isotype control) and PPT formation (FIG. 4C), which is consistent with previous studies discussed above. […] Exposure of Mks for 2 hours to 1 dyn/cm^2 enhanced caspase-3 activation both at d10 and d12 (FIG. 4D) by 1.7 to 5.6 fold depending on the donor and day. Since, as discussed, caspase-3 activation is necessary for PPT formation, one mechanism by which shear stress may promote PPT formation (see below) is by enhancing caspase-3 activation. To investigate this hypothesis, Mks were treated with 10 μM z-VAD.fmk (pan-caspase inhibitor) or z-DEVD.fmk (caspase-3 inhibitor) and were then exposed to shear flow. After flow application, PLPs (d=1-3 μm) and PPTs (d=3-10 μm) were harvested and counted. The effect of shear stress on particle generation was assessed using the ratio of PLP or PPT number from one slide of Mks under flow conditions over that under static conditions. […] However, at d12, both of z-VAD fmk and z-DEVD.fmk decreased both the PPT and PLP ratios (FIGS. 4E and 4F). […] At d12 when Mks produced more PPTs and stared to form a significant number of PLPs, the effect of shear on PPT and PLP generation was attenuated by caspase inhibitors.

Row | PLP ratio (PLP number under flow conditions over static conditions) ([2]; d10 Mks) | PPT ratio (PPT number under flow conditions over static conditions) ([2]; d10 Mks) | PLP ratio (PLP number under flow conditions over static conditions) ([2]; d12 Mks) | PPT ratio (PPT number under flow conditions over static conditions) ([2]; d12 Mks) | SMILES | Ratio of number of MkMPs under shear flow over static conditions [1]
1 | decreased only the PPT ratio | decreased | decreased | decreased | COC(=O)CC[C@H](NC(=O)[C@H](CC(=O)OC)NC(=O)OCc1ccccc1)C(=O)N[C@H](C(=O)N[C@@H](CC(=O)OC)C(=O)CF)C(C)C [z-DEVD.fmk] | attenuated the effect of shear stress
2 | no statistically significant effect | no statistically significant effect | decreased | decreased | COC(=O)C[C@H](NC(=O)[C@H](C)NC(=O)[C@@H](NC(=O)OCc1ccccc1)C(C)C)C(=O)CF [z-VAD.fmk] (Cbz-Val-Ala-Asp(OMe)-CH2F) | only treatment with caspase-3 inhibitor (z-DEVD fmk) attenuated the effect of shear stress
